From patent publication US6214374A, “Compositions, methods and devices for the transdermal delivery of drugs” (priority 1996, dated 2001)
Read-outs that look alike come from different tables or passages of the source.

Experiments:
[1] = Progesterone penetration through a dialysis membrane; assay type: in vitro ADME
Method: Tritium-labeled progesterone was obtained from NEN-DuPont (Wilmington, Del.), with the label at ring positions 1, 2, 6, and 7. It was incorporated in the test compositions in the range 100 to 500 DPM (Disintegration Per Minute) per microgram of progesterone. The labeled progesterone was incorporated at the pre-polymerization stage, i.e., just as water is added to form the hydrogel polymer. Aliquots of the gelling mixtures were added to small amounts of tritiated progesterone in scintillation vials (after the solvent had been evaporated), and stirred briskly with a small spatula. The vials were then tightly capped and stored at room temperature. Milligram portions of this mixture were then taken from widely-spaced sites from within the vials, rapidly weighed, and dispersed in scintillation cocktail for determination of specific activities.
Transdermal penetration was performed in a single-chamber, solvent-replacement Diffusion Cell, held vertically and inverted (FIG. 13). Half-inch diameter discs of skin to which nylon washers had been cemented with cyanoacrylate were used. The available diffusional area of each skin disc enclosed by the nylon washer was 0.495 cm^2. […]
Thus, penetration of progesterone through a dialysis membrane, which was assumed to be more permeable than the skin, was measured to see how much progesterone could accumulate in the receptor of the diffusion cells. […]

[2] = assay type: in vitro ADME, human
Method: Transdermal penetration was performed in a single-chamber, solvent-replacement Diffusion Cell, held vertically and inverted (FIG. 13). Half-inch diameter discs of skin to which nylon washers had been cemented with cyanoacrylate were used. The available diffusional area of each skin disc enclosed by the nylon washer was 0.495 cm^2. The cell was assembled from parts of a commercial PVC coupling manufactured by Genova Products, Inc., Davison, Mich. The body of the coupling serves as the receptor chamber. The skin disc (5), kept flat by the nylon washer (6) cemented to its surface, is seated in the bottom end of the chamber, dermal side in contact with the receptor fluid (8). After test material is applied to the skin surface, an O-ring (4) and a flanged PVC washer (2) coated with aluminum foil (3) are positioned under the nylon washer on the skin, and a retaining nut (1) is carefully tightened under all. A small, teflon-covered magnetic stirring button (7) and the receptor fluid are introduced, after which the top end of the coupling is stoppered with another foil-coated flanged washer (9). After assembly, the cell is held in a rack on a magnetic stirrer, in a 32° C. incubator. The magnetic stirring button is used to stir the receptor fluid in the inverted cell, and this button spins in direct contact with the dermal side of the skin. […]

[3] = Intradermal penetration of progesterone by autoradiography
Source text: Therefore, an alternative procedure was used to acquire skin surface biopsies (Marks and Dawber, 1971, Brit. J. Dermatol. 85:117-123). Surface biopsies consist of a sheet of the top 2-3 layers of the stratum corneum, which retain vellus hairs on the underside, along with fragments of the pilosebaceous ducts known as "follicular casts" (Lavker and Leyden, 1979, "Lamellar Inclusions in Follicular Horny Cells: A New Aspect of Abnormal Keratinization," J. Ultrastruct. Res. 69: 362-370). These samples are produced by application of a drop of cyanoacrylate adhesive on a microscope slide to the surface of the skin, and after the adhesive sets, the slide with adhering tissue is carefully peeled off.
Discs of skin were prepared as described in "Methods", for measurement of intradermal penetration, but using much larger washers to provide test sites of about 10 cm2 in area. A test formula containing 20% progesterone (Sample Z) was applied, and uptake into the skin was allowed to proceed for one hour, and for 20 hours. Surface residue was removed at the indicated times, using the rinse/wipe procedure described. Skin surface biopsies were taken from 1 & 20-Hr skin discs, and coated with photographic emulsion (Illford K-2 emulsion, Illford, London), then allowed to develop for 14 days. Rinsing and fixing were done as prescribed by the manufacturer.

[4] = cited from earlier work
[5] = cited from earlier work; remark: listed apart in the source
[6] = oral, vaginal or rectal; cited from earlier work
[7] = combination of progesterone and estrogen; cited from earlier work
[8] = in vivo; cited from earlier work
[9] = Transdermal penetration of progesterone: oleic acid, myristic acid and butylurea enhancers; assay type: in vitro ADME, human
Source text: Excised full-thickness human skin was obtained from elective surgery, (e.g., breast reductions) or occasionally, from amputated legs. The tissue was stored in plastic containers at refrigerator temperature until use, at which time the subcutaneous fat and connective tissue were carefully trimmed off. Skin specimen thickness was in the range 1.5-2.0 mm, with characteristic histological features preserved.
Tritium-labeled progesterone was obtained from NEN-DuPont (Wilmington, Del.), with the label at ring positions 1, 2, 6, and 7. It was incorporated in the test compositions in the range 100 to 500 DPM (Disintegration Per Minute) per microgram of progesterone. The labeled progesterone was incorporated at the pre-polymerization stage, i.e., just as water is added to form the hydrogel polymer. Aliquots of the gelling mixtures were added to small amounts of tritiated progesterone in scintillation vials (after the solvent had been evaporated), and stirred briskly with a small spatula. The vials were then tightly capped and stored at room temperature. […]
Rates of transdermal penetration of progesterone were determined for three samples: A-1, A-2, and A-3. […]
Some of the data from these determinations are plotted in FIG. 16, to illustrate how the rates were determined. […]

SMILES | lag time, dialysis membrane [1] | rate of penetration through dialysis membrane ([1]; about 1.5 hours) | increase of rate after removal of the epidermis [2] | accumulation in follicles vs stratum corneum, autoradiography [3] | distribution of progesterone in the skin, autoradiography [3] | distribution depth within the follicle, autoradiography ([3]; 0.2 mm-long follicular fragment) | amount penetrated in a 24-hour period ([4]; 24 hours, thin film in vivo, Guy et al.) | penetration rate reported by Guy et al. ([4]; human skin in vivo) [μg/cm^2 /day] | rate of transdermal penetration in vitro ([5]; 2-pyrrolidone enhancer) | rate of transdermal penetration in vitro ([5]; N-methylformamide enhancer) | rate of transdermal penetration in vitro ([5]; no enhancer, acetone solution) [μg/cm^2 /hour] | half life in the body [6] | mean serum level giving an optimal effect in the treatment of menopause [7] [ng/mL] | amount of progesterone in the breast tissue [8] | increase in progesterone concentration in breast tissue [8] | efficacy in promoting the penetration of progesterone through the skin [9]
CC(=O)[C@H]1CC[C@H]2[C@@H]3CCC4=CC(=O)CC[C@]4(C)[C@H]3CC[C@]12C [progesterone, pregn-4-ene-3,20-dione] | no lag time | about 30 μg/cm^2 /Hr | about 2 fold | Accumulation in the follicles appeared to be faster than in the stratum corneum | preferential accumulation of progesterone in the pilosebaceous follicles | distributed uniformly to this depth within the lipid-rich interior of the follicle | about 1.2 μg/cm^2 | 1.2 | 11.4 (+/-4.6) μg/cm^2 /hour | 12.4 (+/-4.4) μg/cm^2 /hour | 0.477 | about 2.2 hours | 2 | high amounts | five-fold | –
CCCCNC(N)=O [n-butylurea, butylurea] | – | – | – | – | – | – | – | – | – | – | – | – | – | – | – | clearly the most efficacious of the three
